In patent US10344019B2 (priority 2010, dated 2019):
pEC50: −log10 of the molar value. Like-named read-outs stand apart in the source and are kept apart here.

How the values were obtained:
Type in all cases: cell-based
[1] = system: HCV 1a RLuc cells (dicistronic genotype 1a H77 replicon, RLuc reporter); test: microbe, parasite or virus in culture; conditions: Hepatitis C virus, read-out: 1a
In short: (§1)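 Replicons used: genotype 1b Con1, 1a H77, 2a JFH-1, and a 2a JFH-1 chimera with J6-strain NS5A (M31 present), all dicistronic.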

[2] = system: HCV 3a RLuc cells (NS5A chimeric genotype 1b Con1 replicon with consensus genotype 3a NS5A gene); test: microbe, parasite or virus in culture; conditions: Hepatitis C virus
In short: (§2)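 Replicon cells stably carrying the listed RLuc-encoding dicistronic replicons were seeded and treated with DMSO serial dilutions of compound (10 mM stocks) diluted into culture medium. After 72 h, cells were lysed and Renilla luciferase activity measured. EC50 was derived by non-linear regression.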

[3] = system: HCV 4a Rluc cells (NS5A chimeric genotype 1b Con1 replicon with genotype 4a NS5A gene); test: microbe, parasite or virus in culture; conditions: Hepatitis C virus, read-out: 4a
In short: as §2

[4] = system: HCV 1b RLuc cells (dicistronic genotype 1b Con1 replicon, RLuc reporter); test: microbe, parasite or virus in culture; conditions: Hepatitis C virus, read-out: 1b (nM)
In short: as §1

[5] = system: HCV 2b Rluc cells (NS5A chimeric genotype 2a JFH-1 replicon with genotype 2b MD2b-1 NS5A gene, M31 present); test: microbe, parasite or virus in culture; conditions: Hepatitis C virus, read-out: 2b
In short: as §2

[6] = system: HCV 2a JFH-1 Rluc cells (dicistronic genotype 2a JFH-1 replicon, RLuc reporter); test: microbe, parasite or virus in culture; conditions: Hepatitis C virus, read-out: 2a JFH
In short: as §1

[7] = system: Q30R in genotype 1a NS5A, 1a Rluc replicon transfected into Huh-7 cured-51 cells; test: HCV replicon assay, resistance mutant 1a Q30R; conditions: Hepatitis C virus, Huh-7, read-out: 1a Q30R
In short: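 Q30R introduced into genotype 1a H77 RLuc replicon by site-directed mutagenesis; replicon RNA transfected into Huh-7 cured-51 cells.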

[8] = system: HCV 2a Rluc cells (NS5A chimeric genotype 2a JFH-1 replicon with genotype 2a J6 strain NS5A gene, M31 present); test: HCV replicon reporter assay, genotype 2a J6 (M31 present); conditions: Hepatitis C virus, read-out: 2a J6
In short: as §1

[9] = read-out: 3a, genotype 3a NS5A chimeric replicon
[10] = genotype 2a JFH-1 RLuc replicon
[11] = read-out: 3a, genotype 3a replicon

Row | Structure (SMILES) | pEC50 ([1]; genotype 1a H77 RLuc replicon) | pEC50 [2, 9] | pEC50 [3] | EC50 [4] | pEC50 [5] | pEC50 [6, 10] | pEC50 [7] | pEC50 [8] | pEC50 ([1]; genotype 1a replicon) | pEC50 [2, 11] | pEC50 ([6]; genotype 2a JFH-1 replicon)
1 | COC[C@H]1C[C@@H](c2ncc(-c3ccc(-c4ccc(-c5cnc([C@@H]6CCCN6C(=O)[C@@H](NC(=O)OC)C(C)C)[nH]5)cc4)cc3)[nH]2)N(C(=O)[C@H](NC(=O)OC)c2ccccc2)C1 [Example 500] | 9.00 to 12.00 | 9.00 to 12.00 | 9.00 to 12.00 | 0.028 nM | 9.00 to 12.00 | 9.00 to 12.00 | 9.00 to 12.00 | 7.36 to 9.00 | – | – | –
2 | COC[C@H]1C[C@@H](c2nc3ccc4cc(-c5ccc6c(ccc7nc([C@@H]8C[C@H](C)CN8C(=O)[C@@H](NC(=O)OC)C(C)C)[nH]c76)c5)ccc4c3[nH]2)N(C(=O)[C@H](N)c2ccccc2)C1 [Example 545] | 9.00 to 12.00 | 9.00 to 12.00 | 9.00 to 12.00 | 0.075 nM | 9.00 to 12.00 | 9.00 to 12.00 | 9.00 to 12.00 | 9.00 to 12.00 | – | – | –
3 | COC(=O)N[C@H](C(=O)N1[C@H]2CC[C@H](C2)[C@H]1c1nc2ccc3cc(-c4ccc5c(ccc6nc([C@@H]7CCCN7C(=O)[C@H](NC(=O)OC)c7ccccc7)[nH]c65)c4)ccc3c2[nH]1)C(C)C [Example 430] | – | – | 9.00 to 12.00 | 0.036 nM | 9.00 to 12.00 | – | 7.36 to 9.00 | 9.00 to 12.00 | 9.00 to 12.00 | 9.00 to 12.00 | 9.00 to 12.00
4 | COC(=O)N[C@H](C(=O)N1[C@@H]2C[C@@H]2C[C@H]1c1nc2ccc3cc4c(cc3c2[nH]1)OCc1cc(-c2cnc([C@@H]3CCCN3C(=O)[C@H](NC(=O)OC)c3ccccc3)[nH]2)ccc1-4)C(C)C [Example 536] | 9.00 to 12.00 | 9.00 to 12.00 | 9.00 to 12.00 | 0.013 nM | 9.00 to 12.00 | 9.00 to 12.00 | 9.00 to 12.00 | 9.00 to 12.00 | – | – | –
5 | COC(=O)N[C@H](C(=O)N1C[C@@H](C)C[C@H]1c1ncc(-c2ccc3c(c2)COc2cc4c(ccc5nc([C@@H]6C[C@H](C)CN6C(=O)[C@H](NC(=O)OC)c6ccccc6)[nH]c54)cc2-3)[nH]1)C(C)C [Example 582] | 9.00 to 12.00 | 9.00 to 12.00 | 9.00 to 12.00 | 0.01 nM | 9.00 to 12.00 | 9.00 to 12.00 | 9.00 to 12.00 | 9.00 to 12.00 | – | – | –
6 | COC(=O)N[C@H](C(=O)N1C[C@@H](C)C[C@H]1c1nc2ccc3cc4c(cc3c2[nH]1)OCc1cc(-c2cnc([C@@H]3CC[C@H](C)N3C(=O)[C@@H](NC(=O)OC)C(C)C)[nH]2)ccc1-4)C(C)C [Example 566] | 9.00 to 12.00 | 9.00 to 12.00 | 9.00 to 12.00 | 0.009 nM | 9.00 to 12.00 | 9.00 to 12.00 | 9.00 to 12.00 | 9.00 to 12.00 | – | – | –
7 | COC[C@H]1C[C@@H](c2nc3ccc4cc(-c5ccc6c(ccc7nc([C@@H]8C[C@H]9C[C@H]9N8C(=O)[C@H](NC(=O)OC)c8ccccc8)[nH]c76)c5)ccc4c3[nH]2)N(C(=O)[C@@H](NC(=O)OC)C(C)C)C1 [Example 548] | 9.00 to 12.00 | 9.00 to 12.00 | 9.00 to 12.00 | 0.006 nM | 9.00 to 12.00 | 9.00 to 12.00 | 9.00 to 12.00 | 9.00 to 12.00 | – | – | –
8 | COC(=O)N[C@H](C(=O)N1C[C@@H](C)C[C@H]1c1nc2ccc3cc4c(cc3c2[nH]1)OCc1cc(-c2cnc([C@@H]3C[C@H](C)CN3C(=O)[C@H](NC(=O)OC)c3ccccc3)[nH]2)ccc1-4)C(C)C [Example 573] | 9.00 to 12.00 | 9.00 to 12.00 | 9.00 to 12.00 | 0.03 nM | 9.00 to 12.00 | 9.00 to 12.00 | 9.00 to 12.00 | 9.00 to 12.00 | – | – | –
9 | COC[C@H]1C[C@@H](c2nc3ccc4cc(-c5ccc6c(ccc7nc([C@@H]8C[C@H](COC)CN8C(=O)[C@H](NC(=O)OC)c8ccccc8)[nH]c76)c5)ccc4c3[nH]2)N(C(=O)[C@@H](NC(=O)OC)C(C)C)C1 [Example 437] | – | – | 9.00 to 12.00 | 0.048 nM | 9.00 to 12.00 | – | 9.00 to 12.00 | 9.00 to 12.00 | 9.00 to 12.00 | 9.00 to 12.00 | 9.00 to 12.00
10 | COC(=O)N[C@H](C(=O)N1CCC[C@H]1c1ncc(-c2ccc(-c3ccc4c(ccc5nc([C@@H]6CCCN6C(=O)[C@@H](NC(=O)OC)C(C)C)[nH]c54)c3)c(C#Cc3ccccc3)c2)[nH]1)C(C)C [Example 438] | – | – | 9.00 to 12.00 | 0.003 nM | < 7.36 | – | 7.36 to 9.00 | < 7.36 | 9.00 to 12.00 | 9.00 to 12.00 | 9.00 to 12.00
